Data published in US7291612B2, “Immunomodulatory compounds” (Active Biotech A.B., priority 2002, dated 2007).

What follows are molecules tested against T1, CD80-CD28 interaction (Homo sapiens, UniProt P33681) (assay: cell free Homogenous Time Resolved Fluorescence (HTRF) assay, inhibition of the CD80-CD28 interaction). Details: 4 hours at room temperature, read-out: Activity (EC50 in summary form).
T1 construct: mouse Fab fragment (fusion partner)
T1 sequence (P33681 35-242 limits assumed): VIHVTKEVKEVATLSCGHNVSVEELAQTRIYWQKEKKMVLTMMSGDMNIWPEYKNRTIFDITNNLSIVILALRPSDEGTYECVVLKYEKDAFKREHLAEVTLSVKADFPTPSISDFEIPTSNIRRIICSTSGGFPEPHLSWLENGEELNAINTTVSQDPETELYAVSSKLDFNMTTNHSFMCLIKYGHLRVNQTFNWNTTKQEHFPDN
Type: binding
Description: The examples described above were tested in a cell free Homogenous Time Resolved Fluorescence (HTRF) assay to determine their activity as inhibitors of the CD80-CD28 interaction.
In the assay, europium and allophycocyanin (APC) are associated with CD28 and CD80 indirectly (through antibody linkers) to form a complex, which brings the europium and APC into close proximity to generate a signal. The complex comprises the following six proteins: fluorescent label 1, linker antibody 1, CD28 fusion protein, CD80 fusion protein, linker antibody 2, and fluorescent label 2. The table below describes these reagents in greater detail.
On formation of the complex, europium and APC are brought into proximity and a signal is generated.
Non-specific interaction was measured by substituting a mouse Fab fragment (C215) for the CD80 mouse Fab fragment fusion protein (1.9 μg/ml). The assay was carried out in black 384 well plates in a final volume of 30 μl. Assay buffer: 50 mM Tris-HCl, 150 mM NaCl pH7.8, containing 0.1% BSA (w/v) added just prior to use.
Compounds were added to the above reagents in a concentration series ranging between 100 μM-1.7 nM. The reaction was incubated for 4 hours at room temperature. Dual measurements were made using a Wallac Victor 1420 Multilabel Counter. First measurement: excitation 340 nm, emission 665 nm, delay 50 μs, window time 200 μs. second measurement: excitation 340 nm, emission 615 nm, delay 50 μs, window time 200 μs. Counts were automatically corrected for fluorescence crossover, quenching and background.
O=C(NCCCN1CCCC1=O)c1ccc(-n2nc3c4cccc(F)c4[nH]cc-3c2=O)cc1 [Example 121] showed an EC50 of 1000 to 10000 nM.
In the case of O=C(NCCCn1ccnc1)c1ccc(-n2nc3c4cccc(F)c4[nH]cc-3c2=O)cc1 [Example 122], the EC50 is reported as < 1000 nM.
In the case of O=C(NC1CCCCNC1=O)c1ccc(-n2nc3c4cccc(F)c4[nH]cc-3c2=O)cc1 (stereo not drawn) [Example 123], the EC50 is reported as 1000 to 10000 nM.
CCN(CC)CCCCNC(=O)c1ccc(-n2nc3c4cccc(F)c4[nH]cc-3c2=O)cc1 [Example 124] was tested, and the EC50 was < 1000 nM.
With O=C(NC1CCN(Cc2ccccc2)CC1)c1ccc(-n2nc3c4cccc(F)c4[nH]c(C4CC4)c-3c2=O)cc1 [Example 125] the EC50 was < 1000 nM.
With O=C(NCCc1ccccn1)c1ccc(-n2nc3c4cccc(F)c4[nH]cc-3c2=O)cc1 [Example 127] the EC50 was > 10000 nM.
Work on CSCCCNC(=O)c1ccc(-n2nc3c4cccc(F)c4[nH]cc-3c2=O)cc1 [Example 128] yielded an EC50 of 1000 to 10000 nM.
In the case of CN1C(C)(C)CC(NC(=O)c2ccc(-n3nc4c5ccccc5[nH]c(C5CC5)c-4c3=O)cc2)CC1(C)C [Example 129], the EC50 is reported as < 1000 nM.
O=C(NCCCCN1CCCC1)c1ccc(-n2nc3c4cccc(F)c4[nH]c(C4CC4)c-3c2=O)cc1 [Example 130] was tested, and the EC50 was < 1000 nM.
For CN1C2CCC1CC(NC(=O)c1ccc(-n3nc4c5cccc(F)c5[nH]cc-4c3=O)cc1)C2 (stereo not drawn) [Example 131], the EC50 was < 1000 nM.
With CN(C)CCCNC(=O)c1ccc(-n2nc3c4cccc(F)c4[nH]c(C4CC4)c-3c2=O)cc1 [Example 132] the EC50 was < 1000 nM.
CN1C2CCC1CC(NC(=O)c1ccc(-n3nc4c5cccc(F)c5[nH]c(C5CC5)c-4c3=O)cc1)C2 (stereo not drawn) [Example 134] was tested, and the EC50 was < 1000 nM.
For CCN(CC)CCCCNC(=O)c1ccc(-n2nc3c4cccc(F)c4[nH]c(C4CC4)c-3c2=O)cc1 [Example 135], the EC50 was < 1000 nM.
CC(C)(C)OC(=O)N1CCC(NC(=O)c2ccc(-n3nc4c5cccc(F)c5[nH]c(C5CC5)c-4c3=O)cc2)CC1 [Example 136] was tested, and the EC50 was 1000 to 10000 nM.
O=C(NCCCN1CCN(Cc2c(F)cccc2Cl)CC1)c1ccc(-n2nc3c4cccc(F)c4[nH]c(C4CC4)c-3c2=O)cc1 [Example 137] was tested, and the EC50 was < 1000 nM.
For O=C(NCCc1ccccn1)c1ccc(-n2nc3c4cccc(F)c4[nH]c(C4CC4)c-3c2=O)cc1 [Example 138], the EC50 was 1000 to 10000 nM.
In the case of O=C(NCCc1cccnc1)c1ccc(-n2nc3c4cccc(F)c4[nH]c(C4CC4)c-3c2=O)cc1 [Example 139], the EC50 is reported as > 10000 nM.
CN(C)CC(C)(C)CNC(=O)c1ccc(-n2nc3c4cccc(F)c4[nH]c(C4CC4)c-3c2=O)cc1 [Example 140] was tested, and the EC50 was < 1000 nM.
In the case of O=C(NCCCN1CCCC1)c1ccc(-n2nc3c4cccc(F)c4[nH]c(C4CC4)c-3c2=O)cc1 [Example 141], the EC50 is reported as < 1000 nM.
For CCOC(=O)CNC(=O)Nc1ccc(-n2nc3c4cccc(F)c4[nH]cc-3c2=O)cc1 [Example 142, {3-[4-(6-Fluoro-3-oxo-3,5-dihydro-pyrazolo[4,3-c]quinolin-2-yl)-phenyl]-ureido} acetic acid ethyl ester], the EC50 was < 1000 nM.
CCCNC(=O)Nc1ccc(-n2nc3c4cccc(F)c4[nH]cc-3c2=O)cc1 [Example 145] was tested, and the EC50 was < 1000 nM.
CC(C)(C)NC(=O)Nc1ccc(-n2nc3c4cccc(F)c4[nH]cc-3c2=O)cc1 [Example 146] was tested, and the EC50 was < 1000 nM.
O=C(Nc1ccccc1)Nc1ccc(-n2nc3c4cccc(F)c4[nH]cc-3c2=O)cc1 [Example 147] gave an EC50 of 1000 to 10000 nM.
O=c1c2c[nH]c3c(F)cccc3c-2nn1-c1ccc(NC(=S)NC2CC2)cc1 [Example 148] showed an EC50 of 1000 to 10000 nM.
In the case of O=c1c2c[nH]c3c(F)cccc3c-2nn1-c1ccc(NC(=S)NC2CCCCC2)cc1 [Example 149], the EC50 is reported as > 10000 nM.
CC(C)(C)OC(=O)Nc1ccc(-n2nc3c4cccc(F)c4[nH]cc-3c2=O)cc1 [Example 150] was tested, and the EC50 was < 1000 nM.
For CCOC(=O)Nc1ccc(-n2nc3c4cccc(F)c4[nH]cc-3c2=O)cc1 [Example 151], the EC50 was 1000 to 10000 nM.
With CN(C)CCOC(=O)Nc1ccc(-n2nc3c4cccc(F)c4[nH]cc-3c2=O)cc1 [Example 152] the EC50 was < 1000 nM.
For COC(=O)Nc1ccc(-n2nc3c4ccccc4[nH]c(C4CC4)c-3c2=O)cc1 [Example 153], the EC50 was 1000 to 10000 nM.
CN(C)CCCOC(=O)Nc1ccc(-n2nc3c4cccc(F)c4[nH]cc-3c2=O)cc1 [Example 154] was tested, and the EC50 was < 1000 nM.
For O=C(Nc1ccc(-n2nc3c4cccc(F)c4[nH]cc-3c2=O)cc1)OC1CCN(Cc2ccccc2)CC1 [Example 155], the EC50 was 1000 to 10000 nM.
CCCCCNC(=S)Nc1ccc(-n2nc3c4cccc(F)c4[nH]cc-3c2=O)cc1 [Example 156] was tested, and the EC50 was 1000 to 10000 nM.
CC(C)C(C)NC(=S)Nc1ccc(-n2nc3c4cccc(F)c4[nH]cc-3c2=O)cc1 (stereo not drawn) [Example 157] was tested, and the EC50 was 1000 to 10000 nM.
For CCN(CC)CCCCNC(=O)Nc1ccc(-n2nc3c4cccc(F)c4[nH]cc-3c2=O)cc1 [Example 158], the EC50 was < 1000 nM.
CCCNC(=O)Nc1ccc(-n2nc3c4ccccc4[nH]cc-3c2=O)cc1 [Example 159] was tested, and the EC50 was < 1000 nM.
Work on O=c1c2c[nH]c3ccccc3c-2nn1-c1ccc(NC(=S)NC2CC2)cc1 [Example 160] yielded an EC50 of 1000 to 10000 nM.
With CN(C)CCCNC(=O)Nc1ccc(-n2nc3c4cccc(F)c4[nH]cc-3c2=O)cc1 [Example 161] the EC50 was < 1000 nM.
In the case of COC(=O)[C@@H](NC(=O)Nc1ccc(-n2nc3c4ccccc4[nH]cc-3c2=O)cc1)C(C)C [Example 162], the EC50 is reported as < 1000 nM.
For CN(C)CCCCNC(=O)Nc1ccc(-n2nc3c4cccc(F)c4[nH]cc-3c2=O)cc1 [Example 163], the EC50 was < 1000 nM.
In the case of O=C(NCCCCN1CCCC1)Nc1ccc(-n2nc3c4cccc(F)c4[nH]cc-3c2=O)cc1 [Example 164], the EC50 is reported as < 1000 nM.
CN(C)CCCNC(=O)c1ccc(-n2nc3c4ccccc4scc-3c2=O)cc1 [Example 165, N-[3-(dimethylamino)propyl]-4-(3-oxothiochromeno[4,3-c]pyrazol-2(3H)-yl)benzamide] was tested, and the EC50 was 1000 to 10000 nM.
O=C(NCCCNC1CCCCC1)c1ccc(-n2nc3c4ccccc4scc-3c2=O)cc1 [Example 166, N-[(cyclohexylamino)propyl]-4-(3-oxothiochromeno[4,3-c]pyrazol-2(3H)-yl)benzamide] was tested, and the EC50 was < 1000 nM.
In the case of O=C(NCCCCN1CCCC1)c1ccc(-n2nc3c4ccccc4scc-3c2=O)cc1 [Example 167, N-(pyrrolidin-1-yl-butyl)-4-(3-oxothiochromeno[4,3-c]pyrazol-2(3H)-yl)benzamide], the EC50 is reported as > 10000 nM.
Molecule CN1C(C)(C)CC(NC(=O)c2ccc(-n3nc4c5ccccc5scc-4c3=O)cc2)CC1(C)C [Example 168, 4-(3-oxothiochromeno[4,3-c]pyrazol-2(3H)-yl)-N-1,2,2,6,6-pentamethylpiperidin-4-ylbenzamide] has an EC50 of 1000 to 10000 nM.
In the case of CN(C)CCCNC(=O)c1ccc(-n2nc3c4cccc(F)c4scc-3c2=O)cc1 [Example 169, N-[3-(dimethylamino)propyl]-4-(6-fluoro-3-oxothiochromeno[4,3-c]pyrazol-2(3H)-yl)benzamide], the EC50 is reported as 1000 to 10000 nM.
In the case of O=C(NCCCNC1CCCCC1)c1ccc(-n2nc3c4cccc(F)c4scc-3c2=O)cc1 [Example 170, N-[(cyclohexylamino)propyl]-4-(6-fluoro-3-oxothiochromeno[4,3-c]pyrazol-2(3H)-yl)benzamide], the EC50 is reported as 1000 to 10000 nM.
With O=C(NCCCCN1CCCC1)c1ccc(-n2nc3c4cccc(F)c4scc-3c2=O)cc1 [Example 171, N-(pyrrolidin-1-yl-butyl)-4-(6-fluoro-3-oxothiochromeno[4,3-c]pyrazol-2(3H)-yl)benzamide] the EC50 was < 1000 nM.
For CN1C(C)(C)CC(NC(=O)c2ccc(-n3nc4c5cccc(F)c5scc-4c3=O)cc2)CC1(C)C [Example 173, 4-(6-fluoro-3-oxothiochromeno[4,3-c]pyrazol-2(3H)-yl)-N-1,2,2,6,6-pentamethylpiperidin-4-ylbenzamide], the EC50 was < 1000 nM.
